Reference: PubChem BioAssay AID1918940 (Molecular Pharmacology Branch, DTP, NCI, 2023)
“And” between values parts separate entries of the source, which are not always exact repeats. Equal entries are not always repeated.

Tested on: NCI-H211 complex spheroid viability
Test: Anticancer human tumor NCI-H211 cell line growth inhibition [LSD1];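 also: luminescent viability read after seven days of drug exposure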;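 as to viability, T/C: 100% = DMSO vehicle control viability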
Settings: for viability, T/C: stronger effect = lower value
How it was run: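 Drug combinations with the LSD1 inhibitor iadademstat tested on tumor cells co-cultured as spheroids with endothelial cells and mesenchymal stem cells. Concentrations descended in half-log increments from clinical Cmax or 10 microM.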

[1] = curve of first compound, second compound 0.1 µM
[2] = curve of first compound, second compound 0.316 µM
[3] = curve of first compound, second compound 1 µM
[4] = curve of first compound, second compound 3.16 µM
[5] = curve of first compound, second compound 10 µM
[6] = second compound 0.1 µM, first compound 0.000949 µM
[7] = second compound 0.1 µM, first compound 0.003 µM
[8] = second compound 0.1 µM, first compound 0.00949 µM
[9] = second compound 0.1 µM, first compound 0.03 µM
[10] = second compound 0.1 µM, first compound 0.0949 µM
[11] = second compound 0.1 µM, first compound 0.3 µM
[12] = second compound 0.316 µM, first compound 0.000949 µM
[13] = second compound 0.316 µM, first compound 0.003 µM
[14] = second compound 0.316 µM, first compound 0.00949 µM
[15] = second compound 0.316 µM, first compound 0.03 µM
[16] = second compound 0.316 µM, first compound 0.0949 µM
[17] = second compound 0.316 µM, first compound 0.3 µM
[18] = second compound 1 µM, first compound 0.000949 µM
[19] = second compound 1 µM, first compound 0.003 µM
[20] = second compound 1 µM, first compound 0.00949 µM
[21] = second compound 1 µM, first compound 0.03 µM
[22] = second compound 1 µM, first compound 0.0949 µM
[23] = second compound 1 µM, first compound 0.3 µM
[24] = second compound 3.16 µM, first compound 0.000949 µM
[25] = second compound 3.16 µM, first compound 0.003 µM
[26] = second compound 3.16 µM, first compound 0.00949 µM
[27] = second compound 3.16 µM, first compound 0.03 µM
[28] = second compound 3.16 µM, first compound 0.0949 µM
[29] = second compound 3.16 µM, first compound 0.3 µM
[30] = second compound 10 µM, first compound 0.000949 µM
[31] = second compound 10 µM, first compound 0.003 µM
[32] = second compound 10 µM, first compound 0.00949 µM
[33] = second compound 10 µM, first compound 0.03 µM
[34] = second compound 10 µM, first compound 0.0949 µM
[35] = second compound 10 µM, first compound 0.3 µM

Structure (SMILES): Nc1ncn(C2CC(O)C(CO)S2)c(=O)n1 (configuration not stated) + NC1CC1c1ccc(-c2cccc(O)c2)cc1
- IC50 [1]: < 0.949 nM
- IC50 [2]: < 0.949 nM
- IC50 [3]: < 0.949 nM
- IC50 [4]: < 0.949 nM
- IC50 [5]: < 0.949 nM
- viability, T/C [6]: 35.2%
- viability, T/C [7]: 20.8%
- viability, T/C [8]: 9.36%
- viability, T/C [9]: 4.53%
- viability, T/C [10]: 4.25%
- viability, T/C [11]: 5.78%
- viability, T/C [12]: 35.8%
- viability, T/C [13]: 16.6%
- viability, T/C [14]: 8.03%
- viability, T/C [15]: 5.12%
- viability, T/C [16]: 5.19%
- viability, T/C [17]: 5.71%
- viability, T/C [18]: 40.5%
- viability, T/C [19]: 17.2%
- viability, T/C [20]: 8.75%
- viability, T/C [21]: 4.16%
- viability, T/C [22]: 4.46%
- viability, T/C [23]: 6.59%
- viability, T/C [24]: 31.3%
- viability, T/C [25]: 15.9%
- viability, T/C [26]: 8.59%
- viability, T/C [27]: 5.64%
- viability, T/C [28]: 5.95%
- viability, T/C [29]: 4.49%
- viability, T/C [30]: 32.3%
- viability, T/C [31]: 16.6%
- viability, T/C [32]: 8.49%
- viability, T/C [33]: 6.66%
- viability, T/C [34]: 5.5%
- viability, T/C [35]: 6.65%

Structure (SMILES): Nc1ccn(C2OC(CO)C(O)C2(F)F)c(=O)n1 (configuration not stated) + NC1CCC(NC2CC2c2ccccc2)CC1
- IC50 [1]: < 0.949 nM
- IC50 [2]: < 0.949 nM
- IC50 [3]: < 0.949 nM
- IC50 [4]: < 0.949 nM
- IC50 [5]: < 0.949 nM
- viability, T/C [6]: 2.51%
- viability, T/C [7]: 2.16%
- viability, T/C [8]: 2.36%
- viability, T/C [9]: 1.86%
- viability, T/C [10]: 2.26%
- viability, T/C [11]: 2.41%
- viability, T/C [12]: 2.59%
- viability, T/C [13]: 2.18%
- viability, T/C [14]: 2.35%
- viability, T/C [15]: 2.12%
- viability, T/C [16]: 2.8%
- viability, T/C [17]: 2.37%
- viability, T/C [18]: 2.5%
- viability, T/C [19]: 1.98%
- viability, T/C [20]: 2.28%
- viability, T/C [21]: 2.01%
- viability, T/C [22]: 2.14%
- viability, T/C [23]: 2.46%
- viability, T/C [24]: 2.06%
- viability, T/C [25]: 3.05%
- viability, T/C [26]: 2.05%
- viability, T/C [27]: 1.95%
- viability, T/C [28]: 2.15%
- viability, T/C [29]: 2.13%
- viability, T/C [30]: 1.03%
- viability, T/C [31]: 0.96%
- viability, T/C [32]: 1.05%
- viability, T/C [33]: 0.79%
- viability, T/C [34]: 0.64%
- viability, T/C [35]: 1.61%

Structure (SMILES): Nc1ncn(C2CC(O)C(CO)S2)c(=O)n1 (configuration not stated) + NC1CCC(NC2CC2c2ccccc2)CC1
- IC50 [1]: < 0.949 nM
- IC50 [2]: 1.19 nM
- IC50 [3]: 1.01 nM
- IC50 [4]: < 0.949 nM
- IC50 [5]: < 0.949 nM
- viability, T/C [6]: 47.8%
- viability, T/C [7]: 27.1%
- viability, T/C [8]: 8.74%
- viability, T/C [9]: 3.26%
- viability, T/C [10]: 1.8%
- viability, T/C [11]: 1.91%
- viability, T/C [12]: 55.8%
- viability, T/C [13]: 26.6%
- viability, T/C [14]: 12.1%
- viability, T/C [15]: 3.64%
- viability, T/C [16]: 2.15%
- viability, T/C [17]: 1.98%
- viability, T/C [18]: 51.4%
- viability, T/C [19]: 26.6%
- viability, T/C [20]: 8.75%
- viability, T/C [21]: 3.07%
- viability, T/C [22]: 2.09%
- viability, T/C [23]: 1.41%
- viability, T/C [24]: 47.7%
- viability, T/C [25]: 23.7%
- viability, T/C [26]: 7.85%
- viability, T/C [27]: 2.42%
- viability, T/C [28]: 1.84%
- viability, T/C [29]: 1.65%
- viability, T/C [30]: 25.3%
- viability, T/C [31]: 9.03%
- viability, T/C [32]: 3.09%
- viability, T/C [33]: 1.41%
- viability, T/C [34]: 0.7%
- viability, T/C [35]: 0.58%

Structure (SMILES): O=C(C=Cc1cccc(S(=O)(=O)Nc2ccccc2)c1)NO + NC1CCC(NC2CC2c2ccccc2)CC1
- IC50 [1]: < 9.49 nM
- IC50 [2]: < 9.49 nM
- IC50 [3]: < 9.49 nM
- IC50 [4]: < 9.49 nM
- IC50 [5]: < 9.49 nM
- viability, T/C [8]: 15.1%
- viability, T/C [9]: 3.51%
- viability, T/C [10]: 2.43%
- viability, T/C [11]: 1.81%
- viability, T/C (second compound 0.1 µM, first compound 0.949 µM): 0.5%
- viability, T/C (second compound 0.1 µM, first compound 3 µM): 0.09%
- viability, T/C [14]: 18.4%
- viability, T/C [15]: 3.02%
- viability, T/C [16]: 8.25%
- viability, T/C [17]: 1.92%
- viability, T/C (second compound 0.316 µM, first compound 0.949 µM): 1.26%
- viability, T/C (second compound 0.316 µM, first compound 3 µM): 0.1%
- viability, T/C [20]: 17.3%
- viability, T/C [21]: 3.31%
- viability, T/C [22]: 4.77%
- viability, T/C [23]: 1.92%
- viability, T/C (second compound 1 µM, first compound 0.949 µM): 3.19%
- viability, T/C (second compound 1 µM, first compound 3 µM): 5.1%
- viability, T/C [26]: 11.6%
- viability, T/C [27]: 2.91%
- viability, T/C [28]: 4.81%
- viability, T/C [29]: 2.66%
- viability, T/C (second compound 3.16 µM, first compound 0.949 µM): 0.27%
- viability, T/C (second compound 3.16 µM, first compound 3 µM): 0.1%
- viability, T/C [32]: 9.56%
- viability, T/C [33]: 2.44%
- viability, T/C [34]: 2.03%
- viability, T/C [35]: 1.32%
- viability, T/C (second compound 10 µM, first compound 0.949 µM): 0.15%
- viability, T/C (second compound 10 µM, first compound 3 µM): 0.17%

Structure (SMILES): CC(C)c1c(-c2ccccc2)nc2c(C#N)c[nH]n2c1=O
- viability, T/C (compound 0.0316 µM): 104% and 81.5%
- viability, T/C (compound 0.1 µM): 127% and 88%
- viability, T/C (compound 0.316 µM): 103% and 68.7%
- viability, T/C (compound 1 µM): 114% and 68.7%
- viability, T/C (compound 3.16 µM): 98.9% and 67%
- viability, T/C (compound 10 µM): 97.3% and 75.2%
- IC50 (curve of compound): > 10000 nM
